pKi: −log10 of the molar value. Calls of active or inactive are those of the source. The calls are words filed in the database; no cut-off is given here.
What was measured:
[1] = molecular target: Thymidylate synthase (Escherichia coli) (UniProt C3SWJ7); assay: Inhibition of Escherichia coli thymidylate synthase at 10 uM
Thymidylate synthase [2] = molecular target: T1, Thymidylate synthase (Lactobacillus casei, UniProt P00469)
T1 sequence (P00469 whole entry): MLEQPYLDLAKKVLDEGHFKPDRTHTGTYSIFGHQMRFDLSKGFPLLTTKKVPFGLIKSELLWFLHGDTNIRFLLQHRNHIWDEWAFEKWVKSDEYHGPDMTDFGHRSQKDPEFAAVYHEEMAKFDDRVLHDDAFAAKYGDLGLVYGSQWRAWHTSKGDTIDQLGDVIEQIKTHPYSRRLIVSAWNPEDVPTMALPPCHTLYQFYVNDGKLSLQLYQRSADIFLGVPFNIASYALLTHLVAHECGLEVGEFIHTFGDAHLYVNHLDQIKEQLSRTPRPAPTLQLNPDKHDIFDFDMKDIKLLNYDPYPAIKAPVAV
Description: Inhibition of Lactobacillus casei thymidylate synthase

Thymidylate synthase [3] = molecular target: Thymidylate synthase (Escherichia coli, UniProt C3SWJ7)
Chain of Thymidylate synthase (Escherichia coli, UniProt C3SWJ7) (C3SWJ7 whole entry): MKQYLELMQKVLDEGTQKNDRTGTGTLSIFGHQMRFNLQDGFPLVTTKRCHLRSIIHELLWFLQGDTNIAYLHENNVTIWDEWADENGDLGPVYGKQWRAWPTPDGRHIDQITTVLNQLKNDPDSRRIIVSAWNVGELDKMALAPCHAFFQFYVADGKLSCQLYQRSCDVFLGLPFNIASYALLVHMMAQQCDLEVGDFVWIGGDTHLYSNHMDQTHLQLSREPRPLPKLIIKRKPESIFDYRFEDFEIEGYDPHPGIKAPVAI

CCRF-CEM = assay: Growth inhibition of human CCRF-CEM cells after 48 hrs by SRB staining method; type: functional

Chain of Thymidylate synthase (Escherichia coli) (C3SWJ7 1-264): as the sequence (C3SWJ7 whole entry) above

| Compound | Activity [1] | pKi (Thymidylate synthase [2]) | pKi (Thymidylate synthase [3]) | GI50 (CCRF-CEM) [µM] |
| --- | --- | --- | --- | --- |
| COc1ccc(Nc2nc3cc([N+](=O)[O-])cc([N+](=O)[O-])c3nc2-c2ccccc2)cc1 | inactive | 5.10 |  |  |
| COc1cc(Nc2nc3cc([N+](=O)[O-])cc([N+](=O)[O-])c3nc2-c2ccccc2)cc(OC)c1OC | inactive | 4.96 |  |  |
| CCOC(=O)CCC(NC(=O)c1ccc(Nc2nc3cc([N+](=O)[O-])cc([N+](=O)[O-])c3nc2-c2ccccc2)cc1)C(=O)OCC (stereo unspecified) |  | 4.44 | 5.52 |  |
| COc1cc(Nc2nc3cc([N+](=O)[O-])cc([N+](=O)[O-])c3nc2-c2ccccc2)cc(OC)c1 | inactive | 5.22 |  |  |
| COc1ccc(Nc2nc3cc([N+](=O)[O-])cc([N+](=O)[O-])c3nc2-c2ccccc2)cc1OC |  | 4.62 | 6.00 |  |
| CN(Cc1cnc2nc(N)nc(N)c2n1)c1ccc(C(=O)N[C@@H](CCC(=O)O)C(=O)O)cc1 [METHOTREXATE] |  |  |  | 0.0398 |

Reference: ChEMBL document CHEMBL1149774, “Synthesis of N-(5,7-diamino-3-phenyl-quinoxalin-2-yl)-3,4,5-substituted anilines and N-[4[(5,7-diamino-3-phenylquinoxalin-2-yl)amino]benzoyl]-l-glutamic acid diethyl ester: evaluation of in vitro anti-cancer and anti-folate activities” (Eur J Med Chem, 2008)
